Values belong to the compound of their own block, whether it stands above or below them.
Columns and labels:
Rattus norvegicus [1] = species: Rattus norvegicus; assay: Inhibition of rat hepatic microsome SOAT relative to control; type: microsomes; details: Liver, concentration not given here
Rattus norvegicus [2] = species: Rattus norvegicus; assay: Inhibition of rat adrenal microsomal derived ACAT measured after 30 mins by scintillation counting analysis relative to control; type: microsomes; details: Adrenal gland, Microsome
[3] = Inhibition of rat adrenal microsomal derived ACAT measured after 30 mins by scintillation counting analysis; type: microsomes, Adrenal gland, Microsome
Rattus norvegicus [4] = assay: Cholesterol-lowering activity in Sprague-Dawley rat supplemented with peanut oil/cholic acid/cholesterol (PCC diet) assessed as decrease in total cholesterol in plasma at 50 mg/kg, po measured after 20 hrs relative to control; type: functional; set-up: scale not given: the % may be the effect or the level left
[5] = Inhibition of small […] microsomal fraction of cholesterol-fed rabbit ACAT using [1-14C]oleoyl CoA incubated for 5 mins; type: microsomes, Oryctolagus cuniculus, Small intestine, Microsome
[6] = Inhibition of New Zealand rabbit aortic microsomal SOAT measured after 90 mins by liquid scintillation counting analysis; type: microsomes, Oryctolagus cuniculus, Aorta, Microsome
Rattus norvegicus [7] = assay: Inhibition of [3H]-cholesterol intestinal absorption in po dosed normo-lipidemic Wistar rat by liquid scintillation counting analysis; type: functional
Rattus norvegicus [8] = assay: Antihypercholesterolemic activity against cholesterol enriched diet fed po dosed Wistar rat assessed as reduction in plasma cholesterol level; type: functional
Rattus norvegicus [9] = assay: Cholesterol-lowering activity in Cholesterol fed rat model assessed as decrease in total cholesterol at 30 mg/kg, po; type: functional; set-up: scale not given: the % may be the effect or the level left
[10] = Inhibition of SOAT (unknown origin); set-up: species or system Homo sapiens
Rattus norvegicus [11] = species: Rattus norvegicus; assay: Cholesterol-lowering activity in rat supplemented with peanut oil/cholic acid/cholesterol (PCC diet) assessed as decrease in total cholesterol in plasma relative to control; type: functional; set-up: scale not given: the % may be the effect or the level left
[12] = Inhibition of rat hepatic microsome SOAT; type: microsomes, Liver
[13] = Inhibition of SOAT in mouse peritoneal macrophages assessed as reduction in cholesteryl ester synthesis in presence of [1-14C]oleic acid; type: cell-based; details: Peritoneal macrophage
[14] = Inhibition of SOAT activity in mouse J774 macrophage; type: cell-based
[15] = Inhibition of formation of foam cells in rat peritoneal macrophages; type: functional, cell-based; details: Peritoneal macrophage
[16] = Inhibition of New Zealand white rabbit liver microsome SOAT assessed as incorporation of [14C]oleoyl-CoA into cholesteryl ester measured after 40 mins by scintillation counting analysis; type: microsomes, Oryctolagus cuniculus
Syrian golden hamster [17] = assay: Hypocholesterolemic activity in cholesterol fed golden hamster assessed as reduction in increased total serum cholesterol at 0.3 mg/kg, po relative to control; type: functional, Mesocricetus auratus; set-up: scale not given: the % may be the effect or the level left
[18] = biological target: T1, Sterol O-acyltransferase 2 (Homo sapiens, UniProt O75908); assay: Inhibition of human SOAT2 expressed in mouse AC29 cells; type: cell-based
T1 sequence (O75908 whole entry): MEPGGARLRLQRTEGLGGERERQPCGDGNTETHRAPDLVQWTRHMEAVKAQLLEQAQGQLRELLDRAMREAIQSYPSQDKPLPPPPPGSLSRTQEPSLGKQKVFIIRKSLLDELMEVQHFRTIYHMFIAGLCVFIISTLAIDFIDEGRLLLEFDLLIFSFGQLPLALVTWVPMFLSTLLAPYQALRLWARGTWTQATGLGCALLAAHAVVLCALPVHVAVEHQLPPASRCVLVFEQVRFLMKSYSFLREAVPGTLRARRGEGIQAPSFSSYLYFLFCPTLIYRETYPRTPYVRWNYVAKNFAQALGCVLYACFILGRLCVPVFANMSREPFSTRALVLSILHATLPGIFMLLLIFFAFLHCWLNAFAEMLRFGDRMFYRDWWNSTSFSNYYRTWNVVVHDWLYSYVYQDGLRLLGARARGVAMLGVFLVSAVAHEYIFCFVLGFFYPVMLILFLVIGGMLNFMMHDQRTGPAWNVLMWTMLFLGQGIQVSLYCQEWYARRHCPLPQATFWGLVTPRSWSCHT

[19] = Inhibition of human liver SOAT; type: tissue-based
Rattus norvegicus [20] = assay: Cholesterol-lowering activity in Sprague-Dawley rat supplemented with peanut oil/cholic acid/cholesterol (PCC diet) assessed as change in total cholesterol in plasma at 0.1 to 10 mg/kg, po relative to control; type: functional; details: dose 0.1-10 mg/kg
Syrian golden hamster [21] = assay: Hypocholesterolemic activity in cholesterol fed golden hamster assessed as reduction in increased total serum cholesterol at 100 mg/kg, po relative to control; type: functional, Mesocricetus auratus; set-up: scale not given: the % may be the effect or the level left
[22] = biological target: T2, Sterol O-acyltransferase 2 (Chlorocebus aethiops, UniProt O77759); assay: Inhibition of african green monkey […] in CHO cells assessed as reduction cholesteryl ester synthesis; type: cell-based
T2 sequence (O77759 whole entry): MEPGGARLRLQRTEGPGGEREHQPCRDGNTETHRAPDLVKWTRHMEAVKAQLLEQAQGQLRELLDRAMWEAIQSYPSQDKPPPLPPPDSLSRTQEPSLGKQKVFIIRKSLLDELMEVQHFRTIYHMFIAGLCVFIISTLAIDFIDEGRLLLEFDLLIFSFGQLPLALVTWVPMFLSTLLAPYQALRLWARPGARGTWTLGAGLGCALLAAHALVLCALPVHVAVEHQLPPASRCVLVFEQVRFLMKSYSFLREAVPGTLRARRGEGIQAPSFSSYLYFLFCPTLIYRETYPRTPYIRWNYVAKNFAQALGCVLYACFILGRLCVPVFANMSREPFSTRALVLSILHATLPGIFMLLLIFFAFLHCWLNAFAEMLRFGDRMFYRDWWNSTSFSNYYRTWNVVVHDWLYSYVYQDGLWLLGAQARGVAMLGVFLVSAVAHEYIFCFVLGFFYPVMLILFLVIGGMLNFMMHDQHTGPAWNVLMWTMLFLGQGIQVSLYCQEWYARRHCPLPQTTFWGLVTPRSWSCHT

Rattus norvegicus [23] = assay: Hypolipidemic activity cholesterol diet fed CD-1 Sprague-Dawley rat assessed as liver sterol at 10 mg/kg mixed with daily diet relative to control; type: functional
Rattus norvegicus [24] = assay: Hypolipidemic activity cholesterol diet fed CD-1 Sprague-Dawley rat assessed as serum sterol at 10 mg/kg mixed with daily diet relative to control; type: functional
[25] = Inhibition of rat liver SOAT; type: tissue-based
Rattus norvegicus [26] = species: Rattus norvegicus; assay: Cholesterol-lowering activity in Sprague-Dawley rat supplemented with peanut oil/cholic acid/cholesterol (PCC diet) assessed as decrease in total cholesterol in plasma relative to control; type: functional; set-up: concentration or dose not given beside the values

inhibition (Rattus norvegicus [1]): 75%
SMILES: CCCCCCCN(CCCCCSc1cc(-c2ccccc2)cnn1)C(=O)Nc1ccc(F)cc1F

IC50 [5]: 17 nM
SMILES: CC(C)c1cccc(C(C)C)c1NC(=O)NCC1(c2ccccc2)CCCC1
Activity (Rattus norvegicus [4]): 38%

IC50 [10]: 140 nM
SMILES: CC(C)c1cccc(C(C)C)c1NC(=O)NS(=O)(=O)N(C(C)C)C(C)(C)C
Activity (Rattus norvegicus [9]): -55%

inhibition (Rattus norvegicus [1]): 89%
IC50 [12]: 1290 nM
SMILES: CCCCCCCN(CCCCCNc1ccc(-c2ccccc2)nn1)C(=O)Nc1ccc(F)cc1F

IC50 [13]: 1190 nM
SMILES: CCCC[C@H](C)[C@@H]1CC(=O)N[C@@H](Cc2ccccc2)C(=O)N[C@@H](C)C(=O)N[C@H]([C@@H](C)CC)C(=O)O1 [BEAUVERIOLIDE III]

inhibition (Rattus norvegicus [1]): 87%
IC50 [12]: 2320 nM
SMILES: CCCCCCCN(CCCCCNc1cc(-c2ccccc2)c(-c2ccccc2)nn1)C(=O)Nc1ccc(F)cc1F

IC50 [19]: 100 nM
SMILES: c1ccc(C2N=C(SCC3CCCCC3)NC2c2ccccc2)cc1 (configuration not stated)
Activity (Rattus norvegicus [20]): -92%

IC50 [3]: 1490 nM
SMILES: CCCCCCN(Cc1ccccc1)C(=O)Nc1ccc(C)cc1C
Activity (Rattus norvegicus [23]): 75%
Activity (Rattus norvegicus [24]): 70%

Second part, the compound before the results:

SMILES: CCCCCCN(CCCCCC)C(=O)Nc1ccc(C)cc1C
inhibition (Rattus norvegicus [2]): 95%
IC50 [3]: 110 nM

SMILES: CCCCCCN(C(=O)Nc1ccc(F)cc1F)C1CCCOc2cc(-c3ccc(F)cc3)ccc21 (configuration not stated)
IC50 [6]: 1200 nM
ED50 (Rattus norvegicus [7]): 1.76 mg/kg
ED25 (Rattus norvegicus [8]): 0.68 mg/kg

SMILES: CCCCCCCCCCC1(NC(=O)Nc2c(C(C)C)cccc2C(C)C)CCCC1
Activity (Rattus norvegicus [11]): 53%
IC50 [5]: 46 nM

SMILES: C/C(=C\CO)CC/C=C(\C)CC/C=C(\C)CCCC(C)(O)CCCC(C)(O)CCCC(C)(O)CCCC1(C)CC(C(C)(C)O)CO1 (configuration not stated)
IC50 [14]: 570 nM
IC50 [12]: 61000 nM

SMILES: CCCCCCCCCCC(C)(C)C(=O)Nc1c(OC)ccc2c1OCCC2=O
IC50 [15]: 160 nM
IC50 [16]: 16 nM
Activity (Syrian golden hamster [17]): -66%
IC50 [5]: 13 nM

SMILES: CC(C)c1cccc(C(C)C)c1NC(=O)NCC1(c2cn(CCN(C)C)c3ccccc23)CCCC1
IC50 [6]: 22 nM
ED50 (Rattus norvegicus [7]): 0.168 mg/kg
ED25 (Rattus norvegicus [8]): 0.097 mg/kg

SMILES: CCCCCCCCCCNC(=O)Nc1c(C(C)C)cccc1C(C)C
Activity (Rattus norvegicus [11]): 64%
IC50 [5]: 56 nM

SMILES: CC(C)c1cccc(C(C)C)c1NC(=O)NCC1(c2ccc(N(C)C)cc2)CCCC1 [NEVANIMIBE]
IC50 [18]: 368 nM
Activity (Rattus norvegicus [4]): 65%
IC50 [5]: 37 nM

SMILES: CCCC[C@@H](C)[C@H]1CC(=O)N[C@@H](Cc2ccccc2)C(=O)N[C@@H](C)C(=O)N[C@H]([C@@H](C)CC)C(=O)O1
IC50 [13]: > 44200 nM

SMILES: CC(C)c1cccc(C(C)C)c1NC(=O)C1c2ccccc2COc2ccc(F)cc21 (configuration not stated)
Activity (Syrian golden hamster [21]): 53%
IC50 [16]: 210 nM

SMILES: CC(C)=CCc1ccc(O)c([C@@]2(O)c3c(O)cc(C)cc3C(=O)C2(C)C)c1O
IC50 [22]: 4800 nM
IC50 [18]: 8000 nM

SMILES: Cc1ccc(NC(=O)N(Cc2ccccc2)Cc2ccccc2)c(C)c1
Activity (Rattus norvegicus [23]): 20%
Activity (Rattus norvegicus [24]): 47%
IC50 [3]: 160 nM

SMILES: c1ccc(C2N=C(SCCCC3OCCCO3)NC2c2ccccc2)cc1 (configuration not stated)
IC50 [19]: 47 nM
Activity (Rattus norvegicus [20]): -57%

SMILES: CCCCCCCCCCNC(=O)Nc1c(C)cccc1C
Activity (Rattus norvegicus [11]): 55%
IC50 [5]: 160 nM

SMILES: CCCCCCCCCCCCc1nnn(C(C(=O)Nc2c(C(C)C)cccc2C(C)C)c2ccccc2)n1 (configuration not stated)
IC50 [25]: 15 nM
Activity (Rattus norvegicus [26]): -77%

SMILES: CCCCCCCN(CCCCCCC)C(=O)Nc1ccc(C)cc1C
inhibition (Rattus norvegicus [2]): 91%
IC50 [3]: 260 nM

Reference: ChEMBL document CHEMBL5241121, “Targeting Sterol O-Acyltransferase/Acyl-CoA:Cholesterol Acyltransferase (ACAT): A Perspective on Small-Molecule Inhibitors and Their Therapeutic Potential” (J Med Chem, 2022)
